The results in this text go back to US20090247559A1 (Exelixis, Inc., priority 2007, published 2009).

Each structure is given as a SMILES string.

Experiment [1] deals with PIM (PIM-1, PIM-2, and/or PIM-3). Nature of the experiment: PIM-1, PIM-2 and PIM-3 inhibition, biochemical chemiluminescence assays (Kinase Glo, IC50 determination). The following applies: Table 1 activity class; PIM refers to PIM-1, PIM-2, and/or PIM-3; read-out: PIM IC50 (Activity B).
In a further experiment the target is CK2 (Homo sapiens, UniProt P68400). The experiment is described as follows: CK2 inhibition, biochemical chemiluminescence holoenzyme assay (Kinase Glo, IC50 determination). The following applies: Table 1 activity class; symbol given only if active; read-out: CK2 IC50 (Activity C). Put shortly:
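Holoenzyme CK2 assay; compounds pre-incubated with substrate and enzyme, then reacted 150 min at 24-27° C. Remaining ATP measured as luminescence with Kinase Glo, and IC50 derived from the signal.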

CK2, sequence (P68400 whole entry): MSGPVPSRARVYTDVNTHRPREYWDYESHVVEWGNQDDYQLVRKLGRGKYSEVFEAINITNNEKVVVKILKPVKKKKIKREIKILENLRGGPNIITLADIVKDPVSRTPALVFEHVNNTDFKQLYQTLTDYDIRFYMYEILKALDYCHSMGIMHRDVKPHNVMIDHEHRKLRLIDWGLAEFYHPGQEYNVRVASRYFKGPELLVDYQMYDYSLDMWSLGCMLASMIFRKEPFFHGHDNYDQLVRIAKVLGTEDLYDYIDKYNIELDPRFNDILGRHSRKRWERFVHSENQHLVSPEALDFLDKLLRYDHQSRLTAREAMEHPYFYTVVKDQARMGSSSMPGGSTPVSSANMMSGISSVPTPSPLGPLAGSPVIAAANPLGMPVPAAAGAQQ
CK2, sequence (P67870 whole entry partner): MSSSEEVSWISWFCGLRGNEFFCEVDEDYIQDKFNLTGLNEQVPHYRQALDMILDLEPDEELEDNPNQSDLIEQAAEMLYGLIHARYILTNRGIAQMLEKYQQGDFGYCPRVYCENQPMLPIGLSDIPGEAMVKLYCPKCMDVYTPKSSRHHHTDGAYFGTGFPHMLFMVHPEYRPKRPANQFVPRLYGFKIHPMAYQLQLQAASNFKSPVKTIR

Consider `COc1ccc(C(=O)Nc2ccc(-c3nc4c(oc5ccc(Br)cc54)c(=O)[nH]3)c(Cl)c2)cc1` [Compound 285, N-[4-(8-bromo-4-oxo-3,4-dihydro[1]benzofuro[3,2-d]pyrimidin-2-yl)-3-chlorophenyl]-4-(methyloxy)benzamide], for which the IC50 (in experiment [1]; on CK2) was less than 10 µM throughout.
As to `O=C1CC(O)CN1Cc1nc2c(oc3ccc(Br)cc32)c(=O)[nH]1` (stereo not drawn) [Compound 286, 8-bromo-2-[(4-hydroxy-2-oxopyrrolidin-1-yl)methyl][1]benzofuro[3,2-d]pyrimidin-4(3H)-one], the half-maximal inhibitory concentration (IC50) (in experiment [1]; at CK2) was less than 10 µM throughout.
For the compound `O=c1[nH]c(COCC2CCNC2)nc2c1oc1ccc(Br)cc12` (stereo not drawn) [Compound 288, 8-bromo-2-{[(pyrrolidin-3-ylmethyl)oxy]methyl}[1]benzofuro[3,2-d]pyrimidin-4(3H)-one], the half-inhibitory concentration (IC50) (in experiment [1]; at CK2) was less than 10 µM throughout.
For `O=C(Nc1ccc(-c2nc3c(oc4ccc(Br)cc43)c(=O)[nH]2)c(Cl)c1)c1cccnc1` [Compound 292, N-[4-(8-bromo-4-oxo-3,4-dihydro[1]benzofuro[3,2-d]pyrimidin-2-yl)-3-chlorophenyl]pyridine-3-carboxamide], the IC50 (in experiment [1]; on CK2) was less than 10 µM in each case.
For `CCN1C[C@@H]2C[C@H]1CN2Cc1nc2c(oc3ccc(Br)cc32)c(=O)[nH]1` [Compound 295, 8-bromo-2-{[(1S,4S)-5-ethyl-2,5-diazabicyclo[2.2.1]hept-2-yl]methyl}[1]benzofuro[3,2-d]pyrimidin-4(3H)-one], the IC50 (in experiment [1]; at CK2) was less than 10 µM each time.
On to `CC(C)(C)OC(=O)N1CCOC(c2nc3c(oc4ccc(Br)cc43)c(=O)[nH]2)C1` (stereo not drawn) [Compound 297, 1,1-Dimethylethyl 2-(8-bromo-4-oxo-3,4-dihydro[1]benzofuro[3,2-d]pyrimidin-2-yl)morpholine-4-carboxylate], for which the IC50 (in experiment [1]; on CK2) was less than 10 µM throughout.
Take `O=c1[nH]c(-c2cc(OC3CCNCC3)no2)nc2c1oc1ccc(Br)cc12` [Compound 299, 8-Bromo-2-[3-(piperidin-4-yloxy)isoxazol-5-yl][1]benzofuro[3,2-d]pyrimidin-4(3H)-one]: the half-maximal inhibitory concentration (IC50) (in experiment [1]; on CK2) was less than 10 µM in each case.
With `O=c1[nH]c(-c2ccc3c(c2)CCNC3)nc2c1oc1ccc(Br)cc12` [Compound 300, 8-Bromo-2-(1,2,3,4-tetrahydroisoquinolin-6-yl)[1]benzofuro[3,2-d]pyrimidin-4(3H)-one], the IC50 (in experiment [1]; on CK2) was less than 10 µM in each case.
In the case of `O=c1[nH]c(-c2ccc(N3CCNCC3)cc2)nc2c1oc1ccc(Br)cc12` [Compound 303, 8-Bromo-2-(4-piperazin-1-ylphenyl)[1]benzofuro[3,2-d]pyrimidin-4(3H)-one], the half-inhibitory concentration (IC50) (in experiment [1]; on CK2) was less than 10 µM each time.
As for `O=C1CC(c2nc3c(oc4ccc(Br)cc43)c(=O)[nH]2)CN1C1CCNCC1` (stereo not drawn) [Compound 304, 8-Bromo-2-(5-oxo-1-piperidin-4-ylpyrrolidin-3-yl)[1]benzofuro[3,2-d]pyrimidin-4(3H)-one], the IC50 (in experiment [1]; on CK2) was less than 10 µM throughout.
Consider `O=c1[nH]c(CN2CCCC(CO)C2)nc2c1oc1ccc(Br)cc12` (stereo not drawn) [Compound 306, 8-bromo-2-{[3-(hydroxymethyl)piperidin-1-yl]methyl}[1]benzofuro[3,2-d]pyrimidin-4(3H)-one], for which the IC50 (in experiment [1]; at CK2) was less than 10 µM in each case.
Consider `O=c1[nH]c(NCCO)nc2c1oc1ccc(Br)cc12` [Compound 309, 8-Bromo-2-[(2-hydroxyethyl)amino][1]benzofuro[3,2-d]pyrimidin-4(3H)-one], for which the IC50 (in experiment [1]; on CK2) was less than 10 µM in each case.
As for `O=C(O)Cc1nc2c(oc3ccc(Br)cc32)c(=O)[nH]1` [Compound 310, (8-bromo-4-oxo-3,4-dihydro[1]benzofuro[3,2-d]pyrimidin-2-yl)acetic acid], the IC50 (in experiment [1]; on CK2) was less than 10 µM in each case.
For the compound `O=C(Nc1ccc(Cl)c(-c2nc3c(oc4ccc(Br)cc43)c(=O)[nH]2)c1)c1ccncc1` [Compound 314, N-[3-(8-bromo-4-oxo-3,4-dihydro[1]benzofuro[3,2-d]pyrimidin-2-yl)-4-chlorophenyl]pyridine-4-carboxamide], the IC50 (in experiment [1]; at CK2) was less than 10 µM throughout.
Consider `O=c1[nH]c(CN2CCC(F)(F)C2)nc2c1oc1ccc(Br)cc12` [Compound 318, 8-bromo-2-[(3,3-difluoropyrrolidin-1-yl)methyl][1]benzofuro[3,2-d]pyrimidin-4(3H)-one], for which the half-inhibitory concentration (IC50) (in experiment [1]; at CK2) was less than 10 µM in each case.
Regarding `O=C(NCc1ccncc1)C1CCN(Cc2nc3c(oc4ccc(Br)cc43)c(=O)[nH]2)C1` (stereo not drawn) [Compound 325, 1-[(8-bromo-4-oxo-3,4-dihydro[1]benzofuro[3,2-d]pyrimidin-2-yl)methyl]-N-(pyridin-4-ylmethyl)pyrrolidine-3-carboxamide], the IC50 (in experiment [1]; on CK2) was less than 10 µM each time.
For the compound `O=C(Nc1ccc(Cl)c(-c2nc3c(oc4ccc(Br)cc43)c(=O)[nH]2)c1)c1ccnc(Cl)c1` [Compound 326, N-[3-(8-bromo-4-oxo-3,4-dihydro[1]benzofuro[3,2-d]pyrimidin-2-yl)-4-chlorophenyl]-2-chloropyridine-4-carboxamide], the concentration for half-maximal inhibition (IC50) (in experiment [1]; at CK2) was less than 10 µM throughout.
Turning to `O=C(Nc1ccc(Cl)c(-c2nc3c(oc4ccc(Br)cc43)c(=O)[nH]2)c1)c1cncnc1` [Compound 329, N-[3-(8-bromo-4-oxo-3,4-dihydro[1]benzofuro[3,2-d]pyrimidin-2-yl)-4-chlorophenyl]pyrimidine-5-carboxamide], the IC50 (in experiment [1]; at CK2) was less than 10 µM each time.
Consider `COC(=O)c1ccc(C(=O)Nc2ccc(-c3nc4c(oc5ccc(Br)cc54)c(=O)[nH]3)c(Cl)c2)nc1` [Compound 334, methyl 6-({[4-(8-bromo-4-oxo-3,4-dihydro[1]benzofuro[3,2-d]pyrimidin-2-yl)-3-chlorophenyl]amino}carbonyl)pyridine-3-carboxylate], for which the 50% inhibitory concentration (IC50) (in experiment [1]; on CK2) was less than 10 µM in each case.
On to `COc1cc(C(=O)Nc2ccc(-c3nc4c(oc5ccc(Br)cc54)c(=O)[nH]3)c(Cl)c2)ccn1` [Compound 335, N-[4-(8-bromo-4-oxo-3,4-dihydro[1]benzofuro[3,2-d]pyrimidin-2-yl)-3-chlorophenyl]-2-(methyloxy)pyridine-4-carboxamide], for which the IC50 (in experiment [1]; at CK2) was less than 10 µM in each case.
On to `O=C(Nc1ccc(-c2nc3c(oc4ccc(Br)cc43)c(=O)[nH]2)c(Cl)c1)c1ccc(Br)cn1` [Compound 336, 5-bromo-N-[4-(8-bromo-4-oxo-3,4-dihydro[1]benzofuro[3,2-d]pyrimidin-2-yl)-3-chlorophenyl]pyridine-2-carboxamide], for which the IC50 (in experiment [1]; at CK2) was less than 10 µM each time.
In the case of `COc1cc(C(=O)Nc2ccc(Cl)c(-c3nc4c(oc5ccc(Br)cc54)c(=O)[nH]3)c2)ccn1` [Compound 337, N-[3-(8-bromo-4-oxo-3,4-dihydro[1]benzofuro[3,2-d]pyrimidin-2-yl)-4-chlorophenyl]-2-(methyloxy)pyridine-4-carboxamide], the IC50 (in experiment [1]; at CK2) was less than 10 µM in each case.
`O=C(Nc1ccc(-c2nc3c(oc4ccc(Br)cc43)c(=O)[nH]2)c(Cl)c1)c1ccc(Cl)cn1` [Compound 339, N-[4-(8-bromo-4-oxo-3,4-dihydro[1]benzofuro[3,2-d]pyrimidin-2-yl)-3-chlorophenyl]-5-chloropyridine-2-carboxamide]: the IC50 (in experiment [1]; at CK2) was less than 10 µM each time.
For the compound `O=C(Nc1ccc(Cl)c(-c2nc3c(oc4ccc(Br)cc43)c(=O)[nH]2)c1)c1ccc(Cl)cn1` [Compound 340, N-[3-(8-bromo-4-oxo-3,4-dihydro[1]benzofuro[3,2-d]pyrimidin-2-yl)-4-chlorophenyl]-5-chloropyridine-2-carboxamide], the IC50 (in experiment [1]; on CK2) was less than 10 µM each time.
With `O=C(Nc1ccc(-c2nc3c(oc4ccc(Br)cc43)c(=O)[nH]2)c(Cl)c1)c1ccoc1` [Compound 341, N-[4-(8-bromo-4-oxo-3,4-dihydro[1]benzofuro[3,2-d]pyrimidin-2-yl)-3-chlorophenyl]furan-3-carboxamide], the IC50 (in experiment [1]; on CK2) was less than 10 µM each time.
As for `O=C(Nc1ccc(Cl)c(-c2nc3c(oc4ccc(Br)cc43)c(=O)[nH]2)c1)c1ccoc1` [Compound 342, N-[3-(8-bromo-4-oxo-3,4-dihydro[1]benzofuro[3,2-d]pyrimidin-2-yl)-4-chlorophenyl]furan-3-carboxamide], the IC50 (in experiment [1]; on CK2) was less than 10 µM in each case.
Turning to `O=C(Nc1ccc(-c2nc3c(oc4ccc(Br)cc43)c(=O)[nH]2)c(Cl)c1)c1ccc(CO)cn1` [Compound 345, N-[4-(8-bromo-4-oxo-3,4-dihydro[1]benzofuro[3,2-d]pyrimidin-2-yl)-3-chlorophenyl]-5-(hydroxymethyl)pyridine-2-carboxamide], the half-inhibitory concentration (IC50) (in experiment [1]; on CK2) was less than 10 µM in each case.
Turning to `Cn1nc(OC2CCNCC2)cc1-c1nc2c(oc3ccc(Br)cc32)c(=O)[nH]1` [Compound 351, 8-Bromo-2-[1-methyl-3-(piperidin-4-yloxy)-1H-pyrazol-5-yl][1]benzofuro[3,2-d]pyrimidin-4(3H)-one], the IC50 (in experiment [1]; on CK2) was less than 10 µM throughout.
With `NCc1nc(-c2nc3c(oc4ccc(Br)cc43)c(=O)[nH]2)cs1` [Compound 352, 2-[2-(Aminomethyl)-1,3-thiazol-4-yl]-8-bromo[1]benzofuro[3,2-d]pyrimidin-4(3H)-one], the IC50 (in experiment [1]; at CK2) was less than 10 µM in each case.
As for `Nc1ccc(-c2nc3c(oc4ccc(Br)cc43)c(=O)[nH]2)cc1` [Compound 354, 2-(4-Aminophenyl)-8-bromo[1]benzofuro[3,2-d]pyrimidin-4(3H)-one], the IC50 (in experiment [1]; at CK2) was less than 10 µM in each case.
